From US11548885B2, “NLRX1 ligands” (Landos Biopharma, Inc., priority 2020, dated 2023)

Key:
CD4+ T cells = assay: Immunological screening in vitro in CD4+ T cells (flow cytometry of TNFα+ and IFNγ+ cells); assay type: cell-based, C57BL/6 mice; settings: 50 nanomolar, 24 h; for production of TNFα / TNF+ CD4+ T cells: anti-CD3/CD28, PMA and ionomycin last 6 h
Source text: Cell culture. Spleens were excised from C57BL/6 mice. Spleens were crushed between the frosted ends of microscope slides and filtered to provide a cellular suspension. Red blood cells were lysed through hypotonic lysis. Remaining cells were washed and filtered. CD4+ T cells were enriched within the suspension using magnetic sorting based negative selection. Cells were collected and plated within 96 well plates coated with anti-CD3/CD28 and cultured in the presence of NX-64-2, NX-64-3, NX-64-4, NX-64-5, or NX-64-9 at 0 or 50 nanomolar for 24 h. During the last 6 h of culture, cells were stimulated with phorbol 12-myristate-13-acetate (PMA) and ionomycin.
Immunological analysis. Cells were collected from 96 well plates and stained with a cocktail of antibodies for immunophenotyping by flow cytometry. Culture supernatant was collected and assayed for cytokine concentrations by cytometric bead array. Data was captured on a BD FACS Celesta and analyzed using FACSDiva.

mice challenged with DSS = assay: DSS model of colitis (acute model of IBD); assay type: in vivo; settings: oral 20 mg/kg once daily
Protocol: DSS model. Mice were given DSS in drinking water for seven days to induce disruption of the epithelial layer. At project initiation, mice were 8 weeks of age and began dosing 24 hours after being placed on DSS. Mice were weighed and scored daily for symptoms of disease (diarrhea, rectal bleeding, rectal inflammation, overall behavior). NX-64-3 was prepared within a 0.5% methylcellulose (12-15 cP) solution. Dosage used was 20 mg/kg delivered once daily. Dosage was calculated based off mean body weights for each gender. Oral dosage was delivered by orogastric gavage of dosage in 0.2 mL volume. Flow Cytometry. Colons were collected into RPMI/FBS buffer containing collagenase (300 U/mL) and DNase (50 U/mL) for digestion. Tissues were digested for 60 minutes under stirring at 37° C. Resultant cellular suspensions were filtered through 100 μm strainers, centrifuged (300×g, 8 min), and washed in fresh RPMI. Following filtration of the resulting single cell suspensions, immune cells were purified by Percoll gradient of cell-containing 40% Percoll overlayed onto 70% Percoll solution. After centrifugation, interphase was collected and washed to obtain enriched colonic lamina propria cell fractions. Cells were labeled with mixtures of extracellular (CD45, CD3, CD4, CD8, CD19, NK1.1, F4/80, CD11b, Gr1) antibodies in a sequential live staining in 96-well plates. […]

[1] = test system: mice challenged with MOG emulsion; assay: MOG35-55 induced experimental autoimmune encephalomyelitis model; assay type: in vivo, C57BL6 mice; settings: oral 20 mg/kg daily
OVA-induced model = OVA-induced model of experimental asthma; assay type: in vivo, C57BL6 mice; settings: oral 20 mg/kg daily days 14-17, day 18, flow cytometry
Protocol: OVA-induced model. C57BL6 mice were immunized with 10 μg of ovalbumin (OVA) in aluminum hydroxide gel by intraperitoneal injection on day 0 and 7 of the experiment. Mice were then exposed to OVA (8% w/v) by aerosolization for 25 minutes daily between days 14 and 17. Treatment with NX-64-3 (20 mg/kg) or vehicle control occurred daily between days 14 and 17 by oral gavage. Dosage was calculated based off mean body weights. Immunological analysis. Lungs were collected on day 18. Lung tissue was minced and digested in RPMI supplemented with FBS, HEPES, and calcium chloride containing 300 U/mL collagenase and 50 U/mL DNase for 45 minutes at 37° C. After filtration, red blood cells were lysed. Cells were labeled with mixtures of extracellular (CD45, CD3, CD4, CD8, MHCII, CD11b, CD11c, SiglecF, Ly6C) and intracellular (IL10) antibodies in a sequential live staining in 96-well plates in preparation for flow cytometry. Data was captured on a BD FACS Celesta and analyzed using FACSDiva.

[2] = day 18, RNA normalized to beta-actin

O=c1nc(Cc2nc(C3=CCCCO3)no2)[nH]c2ccc(-c3ccc(O)nc3)cc12 [NX-64-3, 2-((3-(3,4-dihydro-2H-pyran-6-yl)-1,2,4-oxadiazol-5-yl)methyl)-6-(6-hydroxypyridin-3-yl)quinazolin-4(1H)-one]
production of TNFα / TNF+ CD4+ T cells (CD4+ T cells): significant reduction | production of IFNγ / IFNγ+ CD4+ T cells, in words (CD4+ T cells; relative to vehicle control): greatest magnitude of response | severity of macroscopic lesions (colon) (mice challenged with DSS; 7 days of DSS): decreased | presence of neutrophils in the colonic lamina propria (mice challenged with DSS; day 7, flow cytometry): decreased | recovery from neurological deficiencies [1]: accelerated | expression of II1b in spinal cord [1, 2]: reduced | expression of Tnf in spinal cord [1, 2]: reduced | disease activity index ([1]; scored 0-4 daily): reduced | percentage of IL10+CD4+ T cells within the lung (OVA-induced model): increased | percentage of eosinophils within the lung (OVA-induced model): reduced

Cn1cc(-c2ccc3[nH]c(Cc4nc(C5=CCCCO5)no4)nc(=O)c3c2)cn1 [NX-64-4, 2-((3-(3,4-dihydro-2H-pyran-6-yl)-1,2,4-oxadiazol-5-yl)methyl)-6-(1-methyl-1H-pyrazol-4-yl)quinazolin-4(1H)-one]
production of TNFα / TNF+ CD4+ T cells (CD4+ T cells): significant reduction

Cn1cc(-c2ccc3[nH]c(Cc4nc(-c5cc(=O)cc[nH]5)no4)nc(=O)c3c2)cn1 [NX-64-9, 2-((3-(4-oxo-1H-pyridin-2-yl)-1,2,4-oxadiazol-5-yl)methyl)-6-(1-methyl-1H-pyrazol-4-yl)quinazolin-4(1H)-one]
production of TNFα / TNF+ CD4+ T cells (CD4+ T cells): significant reduction
